Measured values from paper PMC6153434, “Bystander Effects of Hypoxia-Activated Prodrugs: Agent-Based Modeling Using Three Dimensional Cell Cultures” (Frontiers in Pharmacology, 2018).

How the values were obtained:
[1] = pH 7.4
POR-R cells = test: LC-MS/MS assay for PR104A metabolites in anoxic cultures; format: in vitro ADME; conditions: 100 μM PR104A, 3 h, anoxia
Description: POR-R cells (10^6 cells/0.5 mL) in 24-well plates were exposed to 100 μM PR104A under anoxia for 3 h. Plates were centrifuged (216 × g, 4°C, 8 min) extracellular medium was removed and proteins precipitated with an equal volume of ice-cold methanol. Cold methanol (100 μL) was then added to each well to extract intracellular PR104A and metabolites. Samples were stored at -80°C, then thawed, centrifuged (13,000 × g, 5 min, 4°C), diluted with two volumes of ammonium formate buffer (4.5 mM, pH 4.5) and analyzed with an Agilent LC-MS/MS (model 6460) using an electrospray ionization/atmospheric pressure chemical ionization multimode source and photodiode array absorbance detector as described previously ([Patel et al., 2007]).

HCT116 and HCT116/POR#6 = conditions: published value; PR104H+M model; ref Foehrenbacher et al., 2013; cited from earlier work
[2] = ref Hicks et al., 2010; Wang et al., 2014; Gu et al., 2017; cited from earlier work
[3] = tested on: anoxic MCLs of POR-R activators and PORko-G targets; conditions: 100 μM in donor; differing proportions of POR-R activators
[4] = tested on: high-POR 'activator' HCT116 cell lines (POR-R, POR-G); format: cell-based
[5] = tested on: POR-null 'target' HCT116 cells in spheroids; format: cell-based
[6] = tested on: POR-R activators and PORko-G targets (HCT116); test: SN30000 'no bystander effect' agent-based model parameters; conditions: ABM parameter
HCT116 cells = conditions: cited from earlier work
[7] = Stability in culture medium at 37°C by LC-MS/MS
[8] = published value, ref Hicks et al., 2010
[9] = published value, ref Mao et al., 2018

SMILES	Measured logD7.4 [1]	also measured
NC(=O)c1cc(N(CCO)CCO)c([N+](=O)[O-])cc1N [III OH OH H]	-0.445	–
NC(=O)c1cc([N+](=O)[O-])cc([N+](=O)[O-])c1N(CCI)CCI [IV Iodo Iodo H]	3.08	–
CS(=O)(=O)OCCN(CCBr)c1ccc([N+](=O)[O-])c(C(=O)NCC(O)CO)c1[N+](=O)[O-] (stereo not shown) [VI Br OSO2CH3 CH2CHOHCH2OH]	-0.373	–
CS(=O)(=O)OCCN(CCBr)c1cc(C(=O)NCC(O)CO)c([N+](=O)[O-])cc1[N+](=O)[O-] (stereo not shown) [I Br OSO2CH3 CH2CHOHCH2OH]	-0.0453	–
O=C(NCC(O)CO)c1c([N+](=O)[O-])ccc(N(CCBr)CCBr)c1[N+](=O)[O-] (stereo not shown) [VI Br Br CH2CHOHCH2OH]	1.04	–
CS(=O)(=O)OCCN(CCBr)c1cc(C(=O)NCCO)c([N+](=O)[O-])cc1[N+](=O)[O-] [I Br OSO2CH3 CH2CH2OH]	0.461	–
NC(=O)c1cc(N(CCCl)CCCl)c([N+](=O)[O-])cc1[N+](=O)[O-] [I Cl Cl H]	1.515	–
O=C(NCCO)c1cc([N+](=O)[O-])cc([N+](=O)[O-])c1N(CCCl)CCCl [IV Cl Cl CH2CH2OH]	1.92	–
NC(=O)c1cc(NO)cc([N+](=O)[O-])c1N(CCCl)CCCl [V Cl Cl H]	2.19	–
CS(=O)(=O)OCCN(CCI)c1cc(C(N)=O)c([N+](=O)[O-])cc1[N+](=O)[O-] [I Iodo OSO2CH3 H]	0.743	–
CS(=O)(=O)OCCN(CCOS(C)(=O)=O)c1cc(C(N)=O)c([N+](=O)[O-])cc1[N+](=O)[O-] [I OSO2CH3 OSO2CH3 H]	-0.701	–
CS(=O)(=O)OCCN(CCCl)c1cc(C(N)=O)c([N+](=O)[O-])cc1[N+](=O)[O-] [I Cl OSO2CH3 H]	0.425	–
O=C(NCCCO)c1cc(N(CCBr)CCBr)c([N+](=O)[O-])cc1[N+](=O)[O-] [I Br Br (CH2)3OH]	1.81	–
O=C(NCC(O)CO)c1cc([N+](=O)[O-])cc([N+](=O)[O-])c1N(CCBr)CCBr (stereo not shown) [IV Br Br CH2CHOHCH2OH]	1.83	–
CS(=O)(=O)OCCN(CCBr)c1c(C(=O)NCCO)cc(NO)cc1[N+](=O)[O-] [PR104H]	–	intracellular metabolite profile (POR-R cells): major intracellular metabolite; Kc, intrinsic cytotoxic potency (HCT116 and HCT116/POR#6): 92 M⁻¹ s⁻¹
c1c2c(cc3nc(CCCN4CCOCC4)nnc13)CCC2 [nor-oxide]	–	cytotoxicity of downstream metabolites of SN30000 [2]: non-cytotoxic
CS(=O)(=O)c1cc([N+](=O)[O-])c(C(N)=O)cc1N(CCBr)CCBr [II Br Br H]	1.18	–
NC(=O)c1cc([N+](=O)[O-])cc([N+](=O)[O-])c1N(CCBr)CCBr [IV Br Br H]	2.63	–
NC(=O)c1cc(NO)cc([N+](=O)[O-])c1N(CCO)CCO [V OH OH H]	-1.36	–
CS(=O)(=O)OCCN(CCBr)c1c(C(=O)NCCO)cc([N+](=O)[O-])cc1[N+](=O)[O-] [IV Br OSO2CH3 CH2CH2OH]	1.01	–
O=C(NCCN1CCOCC1)c1cc(N(CCCl)CCCl)c([N+](=O)[O-])cc1[N+](=O)[O-] [I Cl Cl CH2CH2-Nmorp]	1.6	–
[O-][n+]1nc(CCCN2CCOCC2)nc2cc3c(cc21)CCC3 [1-oxide]	–	cytotoxicity of downstream metabolites of SN30000 [2]: non-cytotoxic

SMILES	Measured logD7.4 [1]	also measured
CS(=O)(=O)OCCN(CCBr)c1c(C(N)=O)cc([N+](=O)[O-])cc1[N+](=O)[O-] [IV Br OSO2CH3 H]	1.23	–
NC(=O)c1cc(N(CCBr)CCBr)c([N+](=O)[O-])cc1[N+](=O)[O-] [I Br Br H]	1.97	–
O=C(NCC(O)CO)c1cc(N(CCCl)CCCl)c([N+](=O)[O-])cc1[N+](=O)[O-] (stereo not shown) [I Cl Cl CH2CHOHCH2OH]	0.93	–
Nc1cc(C(=O)NCCO)c(N(CCCl)CCCl)c([N+](=O)[O-])c1 [Metabolite B]	–	extracellular concentration relative to PR104H (POR-R cells; P = 0.02): fivefold higher
CS(=O)(=O)OCCN(CCBr)c1cc(C(N)=O)c([N+](=O)[O-])cc1[N+](=O)[O-] [I Br OSO2CH3 H]	0.493	–
O=C(NCCCO)c1cc([N+](=O)[O-])cc([N+](=O)[O-])c1N(CCCl)CCCl [IV Cl Cl (CH2)3OH]	2	–
O=C(NCCCO)c1cc(N(CCCl)CCCl)c([N+](=O)[O-])cc1[N+](=O)[O-] [I Cl Cl (CH2)3OH]	1.49	–
O=C(NCCO)c1cc([N+](=O)[O-])cc([N+](=O)[O-])c1N(CCBr)CCBr [IV Br Br CH2CH2OH]	2.33	–
[O-][n+]1nc(CCCN2CCOCC2)[n+]([O-])c2cc3c(cc21)CCC3 [SN30000]	–	net diffusion through anoxic MCLs [3]: lowered by increasing proportions of activator cells; sensitivity of activator cell lines (clonogenic survival) [4]: marked increases in the sensitivity; bystander effect [5]: trivially small; killing of target cells as proportion of activators increases [5]: increasing proportions of POR-R activators reduced killing of PORko-G targets; Half-life, non-enzymatic loss in culture medium ([6]; 37 °C): 1000 days; F2, proportion of O2-dependent metabolism of the drug [6]: 1; Hill parameter n [6]: 1.7; KO2, O2 concentration for half-maximum prodrug activation [6]: 1.14; Kc, intrinsic cytotoxic potency of the prodrug [6]: 1800 M⁻¹ s⁻¹; Kin, rate constant for transfer from the extracellular to the intracellular compartment [6]: 10 min⁻¹; Kout, rate constant for transfer from the intracellular to the extracellular compartment [6]: 10 min⁻¹; Activator Kmet,0, rate constant for the maximum rate of metabolism in activator cells under anoxia ([6]; POR-R activators, adjusted to optimize monolayer fits): 14 min⁻¹; Target Kmet,0, rate constant for the maximum rate of metabolism in target cells under anoxia ([6]; PORko-G targets, adjusted to optimize monolayer fits): 1.3 min⁻¹; Half-life, non-enzymatic loss in culture medium (HCT116 cells; 37 °C, published value, ref Mao et al., 2018): 1000 days; Hill parameter n (HCT116 cells; oxygen dependence of metabolism, published value, ref Mao et al., 2018): 1.7; Kmet,0, rate constant for the maximum rate of metabolism under anoxia (HCT116 cells; parental HCT116 cells (listed as Target Kmet,0 published value), ref Mao et al., 2018): 1.88 min⁻¹; F2, proportion of O2-dependent metabolism of the drug (HCT116 cells; [8]): 1; KO2, O2 concentration for half-maximum prodrug activation (HCT116 cells; [8]): 1.14; Kin, rate constant for transfer from the extracellular to the intracellular compartment (HCT116 cells; [9]): 10 min⁻¹; Kout, rate constant for transfer from the intracellular to the extracellular compartment (HCT116 cells; [9]): 10 min⁻¹
CS(=O)(=O)OCCN(CCBr)c1c(C(=O)NCC(O)CO)cc([N+](=O)[O-])cc1[N+](=O)[O-] (stereo not shown) [IV Br OSO2CH3 CH2CHOHCH2OH]	0.589	–
O=C(NCCO)c1cc(N(CCBr)CCBr)c([N+](=O)[O-])cc1[N+](=O)[O-] [I Br Br CH2CH2OH]	1.69	–
O=C(NCCO)c1cc(N(CCCl)CCCl)c([N+](=O)[O-])cc1[N+](=O)[O-] [I Cl Cl CH2CH2OH]	1.315	–
O=C(NCC(O)CO)c1cc(N(CCI)CCI)c([N+](=O)[O-])cc1[N+](=O)[O-] (stereo not shown) [I Iodo Iodo CH2CHOHCH2OH]	1.79	–
NC(=O)c1cc(N(CCOS(N)(=O)=O)CCOS(N)(=O)=O)c([N+](=O)[O-])cc1[N+](=O)[O-] [I OSO2NH2 OSO2NH2 H]	-0.95	–
CS(=O)(=O)OCCN(CCCl)c1c(C(N)=O)cc([N+](=O)[O-])cc1[N+](=O)[O-] [IV Cl OSO2CH3 H]	1.02	–
NC(=O)c1c([N+](=O)[O-])ccc(N(CCCl)CCCl)c1[N+](=O)[O-] [VI Cl Cl H]	1.41	–
O=C(NCC(O)CO)c1cc(N(CCBr)CCBr)c([N+](=O)[O-])cc1[N+](=O)[O-] (stereo not shown) [I Br Br CH2CHOHCH2OH]	1.25	–
NC(=O)c1cc(N(CCCl)CCBr)c([N+](=O)[O-])cc1[N+](=O)[O-] [I Cl Br H]	1.61	–
O=C(NCCO)c1cc(NO)cc([N+](=O)[O-])c1N(CCCl)CCCl [Metabolite A, 2-(Bis(2-chloroethyl)amino)-5-(hydroxyamino)-N-(2-hydroxyethyl)-3-nitrobenzamide]	–	cytotoxic potency relative to PR104H (SiHa cells): lower cytotoxic potency; half-life in culture medium relative to PR104H [7]: fourfold longer half-life
O=C(NO)c1cc(N(CCCl)CCCl)c([N+](=O)[O-])cc1[N+](=O)[O-] [I Cl Cl OH]	1.22	–
NC(=O)c1cc(N(CCI)CCI)c([N+](=O)[O-])cc1[N+](=O)[O-] [I Iodo Iodo H]	2.408	–
